# Experimental data taken from article PMC11861906, “Structural basis for lipid-mediated activation of G protein-coupled receptor GPR55” (Nature Communications, 2025).
# Target: wt GPR55 (Gα12) (Homo sapiens, UniProt Q9Y2T6)
# Assay: BRET² G protein dissociation assay, wt GPR55 with Gα12
# Assay type: cell-based
# Conditions: for ΔBRET² ratio (Mean): GPR55-wt-G12
# Excerpt: Guided by structural insights, we employed the G protein dissociation assay to validate the G protein selectivity of GPR55. The sequences of Gα13 and Gα12 are highly similar (76% sequence similarity) and only seven Gα13 residues differ within a 4 Å sphere of the receptor- G protein interaction site (Fig. 5d). Therefore, we included Gα12 in our assays as a control since it was reported that 1-AG-PI-activated GPR55 signals exclusively via Gα13[10]. Herein, we observed robust G protein activation (concluded from a BRET² ratio decrease) when GPR55 was co-expressed with Gα13 (Fig. 5b), even without the addition of any ligand. (Fig. 2f and Supplementary Table S3). This observation is indicative of constitutive activity; however, it could also be explained by GPR55 interaction with cellular lipids that are ubiquitously present. […] (Fig. 5c).
# G protein dissociation assays were performed according to the original protocols of the TRUPATH BRET² assay[47],[87] but with subtle modifications as previously described[61],[88],[89]. All reagents and cells were obtained from Thermo Fisher Scientific unless indicated otherwise. The coding sequences for the G protein biosensors[47] (Gα12-Rluc8, Gα13-Rluc8, wt Gβ3, and Gγ9-GFP), the wt GPR55, the construct used for cryo-EM (with GFP bearing a G67A mutation to disrupt fluorescence properties[48] for BRET² assays), GPR55 binding pocket mutants (G152^4.56F, G152^4.56W, N171^ECL2Q, N171^ECL2A, T176^5.33A, R253^6.62A), and the wt TBXA2R were codon-optimized for Homo sapiens, gene-synthesized, and sub-cloned into pcDNA^TM3.1(+) between NheI and HindIII restriction sites by GeneArt (Thermo Fisher Scientific). […] Freshly grown cells were washed with Dulbecco’s Balanced Salt Solution (DPBS, cat. #14200075) and detached using trypsin-ethylenediaminetetraacetic acid (trypsin-EDTA) (cat. #25300-062). Then, the cells were reconstituted to 500,000 cells per mL with fresh medium, and 1,000,000 cells were seeded into each well of a 6-well plate. After 3 h incubation at 37 °C and 5% CO2, adherent cells were transfected with 600 ng DNA (1:1:1:1 ratio of plasmid DNA for GPR55, wt Gβ3, Gγ9-GFP, and Gα12-Rluc8 or Gα13-Rluc8). Plasmid DNA was mixed with 1.5 µL Lipofectamine^TM 2000 (cat. #11668027) in Opti-MEM^TM medium (cat. #31985062) and incubated for 20 min. Then, the mixture was added to each well of the 6-well plate following 24 h incubation at 37 °C and 5% CO2. Transfected cells were washed with DPBS, detached using EDTA (Versene, cat. #15040066), and reconstituted into fresh medium at 500,000 cells mL^−1. From this suspension, 50,000 cells were seeded into each well of a white-bottom 96-well plate (Nunc^TM MicroWell^TM 96 wells, cat. #136101) following overnight incubation at 37 °C and 5% CO2. Then, the adherent cells were washed with assay medium [Hank’s balanced salt solution (HBSS, cat. #14065056) plus 20 mM HEPES pH 7.4 (cat. #15630056)] and finally reconstituted into 50 µL of the same medium. […] Methoxy e-Coelenterazine was used as luciferase substrate (Prolume Purple, NanoLight Technology, cat. #369), reconstituted at 1 mM in methanol and diluted to 37.5 µM with assay buffer (7.5 µM final assay concentration). The assay was started by the addition of 20 µL luciferase substrate to each well of the assay plate using a Multidrop^TM Combi reagent dispenser (Thermo Fisher Scientific), followed by 5 min incubation at room temperature. Then, 30 µL of agonist dilutions or DMSO control was added (final DMSO concentration 1.5%), followed by an additional 5 min incubation at room temperature.
# Sequence of wt GPR55 (Gα12) (Q9Y2T6 whole entry): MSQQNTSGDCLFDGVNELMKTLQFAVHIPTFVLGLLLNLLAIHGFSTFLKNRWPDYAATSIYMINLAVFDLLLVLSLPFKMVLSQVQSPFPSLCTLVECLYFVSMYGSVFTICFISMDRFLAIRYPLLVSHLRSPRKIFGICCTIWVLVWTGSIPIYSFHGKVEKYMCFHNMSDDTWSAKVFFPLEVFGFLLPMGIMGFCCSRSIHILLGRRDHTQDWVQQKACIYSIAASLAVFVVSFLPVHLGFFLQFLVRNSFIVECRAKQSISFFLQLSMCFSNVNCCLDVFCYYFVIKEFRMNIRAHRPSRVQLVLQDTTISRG
ΔBRET² ratio (Mean) (3e-10 M),ΔBRET² ratio (Mean) (1e-9 M),ΔBRET² ratio (Mean) (3e-9 M),ΔBRET² ratio (Mean) (1e-8 M),ΔBRET² ratio (Mean) (3e-8 M),ΔBRET² ratio (Mean) (1e-7 M),ΔBRET² ratio (Mean) (3e-7 M),ΔBRET² ratio (Mean) (1e-6 M),ΔBRET² ratio (Mean) (3e-6 M),ΔBRET² ratio (Mean) (1e-5 M),ΔBRET² ratio (Mean) (3e-5 M),"G protein activation at GPR55-transfected cells (in words) (wt GPR55, Gα12)",SMILES
0.009016,0.003569,-0.002484,-0.008889,-0.006497,-0.00961,-0.01427,-0.01536,-0.01786,-0.02016,-0.02115,–,"Cc1cccc(N2CCN(C(=O)c3cc(S(=O)(=O)N(C)C)ccc3N3CCCC3)CC2)c1C [ML184, 3-[[4-(2,3-dimethylphenyl)-1-piperazinyl]carbonyl]-N,N-dimethyl-4-(1-pyrrolidinyl)benzenesulfonamide]"
–,–,–,–,–,–,–,–,–,–,–,inactive,CCCCC[C@H](O)/C=C/[C@@H]1[C@@H](C/C=C\CCCC(=O)O)[C@H]2CO[C@@H]1C2 [U-46619]
